According to US8969395B2, “Triterpenoid derivatives useful as antiproliferative agents” (Universidade de Coimbra, priority 2009, dated 2015):

What was measured:
[1] = system: HepG2 (human hepatocellular carcinoma); assay: Cytotoxic activity, MTT assay, HepG2; type: cell-based; settings: mean ±SD
Protocol: (§1) The cytotoxic of compounds of formulas (I) and (II) 14-50 was assessed towards human cancer (HepG2, HeLa and Jurkat) cell lines (Table 3 below). Compounds presented on Table 4 were also tested against a non-tumoral liver cell line (Chang liver). The cell viability of HeLa, HepG2 and Chang liver cells was determined by the MTT assay. Briefly, exponentially growing cells were plated in 96-well plates at a density of 1×10^3, 8×10^3 and 5×10^3 cells/well respectively and incubated for 24 h before treatment. The grown medium was replaced with one contained the tested compounds dissolved in DMSO (final DMSO concentration <0.1%) at different concentrations, in triplicate wells, and cells were incubated for 72 h. After incubation with the compounds, the medium was removed and MTT solution (0.5 mg/ml, 100 μl) was added to each well and the plates were incubated again for 1 h. DMSO (100 μl) was then added to dissolve the formazan crystals and the plates were immediately read at 550 nm on an ELISA plate reader (Tecan Sunrise MR20-301, TECAN, Austria). For the Jurkat cells, the cell viability was determined by the XTT assay. Briefly, exponentially growing cells were plated in 96-well plates at a density of 5.5×10^3 cells/well, treated with different concentrations of compounds in triplicate and incubated for 72 h. After incubation with the compounds the XTT labeling mixture (100 μl) were added to each of the wells and after a 4 h incubation period the plates were read at 450 nm on an ELISA plate reader. […] Known for its cytotoxic activity, betulinic acid 2 was used as a positive control in this experimentation. […] All the IC50 results represent an average of a minimum of three experiments and were expressed as means±standard deviation (SD).

Jurkat (human leukemia) = assay: Cytotoxic activity, XTT assay, Jurkat; type: cell-based; settings: 72 h, mean ±SD
Protocol: as §1

[2] = system: HeLa (human cervical adenocarcinoma); assay: Cytotoxic activity, MTT assay, HeLa; type: cell-based; settings: 72 h, mean ±SD
Protocol: The cytotoxic of compounds of formulas (I) and (II) 14-50 was assessed towards human cancer (HepG2, HeLa and Jurkat) cell lines (Table 3 below). Compounds presented on Table 4 were also tested against a non-tumoral liver cell line (Chang liver). The cell viability of HeLa, HepG2 and Chang liver cells was determined by the MTT assay. Briefly, exponentially growing cells were plated in 96-well plates at a density of 1×10^3, 8×10^3 and 5×10^3 cells/well respectively and incubated for 24 h before treatment. The grown medium was replaced with one contained the tested compounds dissolved in DMSO (final DMSO concentration <0.1%) at different concentrations, in triplicate wells, and cells were incubated for 72 h. After incubation with the compounds, the medium was removed and MTT solution (0.5 mg/ml, 100 μl) was added to each well and the plates were incubated again for 1 h. DMSO (100 μl) was then added to dissolve the formazan crystals and the plates were immediately read at 550 nm on an ELISA plate reader (Tecan Sunrise MR20-301, TECAN, Austria). For the Jurkat cells, the cell viability was determined by the XTT assay. Briefly, exponentially growing cells were plated in 96-well plates at a density of 5.5×10^3 cells/well, treated with different concentrations of compounds in triplicate and incubated for 72 h. After incubation with the compounds the XTT labeling mixture (100 μl) were added to each of the wells and after a 4 h incubation period the plates were read at 450 nm on an ELISA plate reader. […] Known for its cytotoxic activity, betulinic acid 2 was used as a positive control in this experimentation.

[3] = system: HT-29 (human colon adenocarcinoma); assay: Cytotoxic activity, HT-29; type: cell-based; settings: mean ±SD
Protocol: (§2) Compounds presented in Table 6 were also tested in the following cell lines: PC-3 (human prostate adenocarcinoma), LNCaP (human prostate adenocarcinoma), LAPC4 (human prostate adenocarcinoma) and HT-29 (human colon adenocarcinoma).

[4] = system: Chang liver (human normal liver cells); assay: Cytotoxic activity against non-tumoral cell line, MTT assay; type: cell-based; settings: 72 h, mean ±SD
Protocol: as §1

HepG2 cells = assay: Cell cycle analysis by flow cytometry (FACS, PI), HepG2; type: cell-based, human; settings: HepG2, compound at its IC50, 72 h
Protocol: (§3) The effects on the cell cycle of some of these compounds were assessed through flow cytometry by using a fluorescence-activated cell sorter (FACS) (Table 5 below). For this assay 2.3×10^5 HepG2 cells/well, 2.9×10^4 HeLa cells/well, 1.6×10^5 Jurkat cells/well and 1.4×10^5 Chang liver cells/well were plated in 6 well plates with 2 ml of medium. The number of cells was determined by the relationship number of cells/area wells, considering the number of cells that were cultured in 96-well plates. […] Chang liver cells were incubated with compounds 20, […] at concentrations corresponding to the IC80 determined for HepG2 at 72 h. Following 72 h. of incubation, cells were harvested by mild trypsinization, collected by centrifugation and stained in ice-cold Tris-buffered saline (TBS), containing 1 mg/ml PI, 10 mg/ml RNAse free of DNAase and 0.1% Igepal CA-630 for 1 h at 4° C. FACS analysis was carried out at 488 nm in an Epics XL flow cytometer (Coulter Corporation, Hialeah, Fla.). Data from 8×10^3 cells were collected and analyzed using Multicycle program (Phoenix Flow Systems, San Diego, Calif.). All experiments were performed three times with three replicates per experiment. […] To explore the selectivity of the effect on tumor cells, we also tested compounds 20, 44 and 46 in a non-malignant cell line. Chang liver cells were treated with the compounds at the IC80 values determined for HepG2 after 72 h of incubation and no effect was observed, indicating a selective effect of these agents (Table 5 below).

HeLa cells = assay: Cell cycle analysis by flow cytometry (FACS, PI), HeLa; type: cell-based, human; settings: compound at its IC50, 72 h
Protocol: as §3

Jurkat cells = assay: Cell cycle analysis by flow cytometry (FACS, PI), Jurkat; type: cell-based, human; settings: compound at its IC50, 72 h
Protocol: as §3

[5] = system: LAPC4 (human prostate adenocarcinoma); assay: Cytotoxic activity, LAPC4; type: cell-based; settings: mean ±SD
Protocol: as §2

[6] = system: LNCaP (human prostate adenocarcinoma); assay: Cytotoxic activity, LNCaP; type: cell-based; settings: mean ±SD
Protocol: as §2

[7] = system: PC-3 (human prostate adenocarcinoma); assay: Cytotoxic activity, PC-3; type: cell-based; settings: mean ±SD
Protocol: as §2

## 3β-(1H-imidazole-2′-methyl-1-carbonyloxy)-lup-20(29)-en-28-oic acid [Compound 29]
[1]; 72 h
  IC50: 7.3 ± 1 µM
Jurkat (human leukemia)
  IC50: 16.1 ± 3.3 µM
[2]
  IC50: 7.5 ± 1.5 µM
[3]
  IC50: 5.7 ± 0.6 µM

## C=C(C)[C@@H]1CC[C@]2(C(=O)O)CC[C@]3(C)[C@H](CC[C@@H]4[C@@]5(C)CC[C@H](O)C(C)(C)[C@@H]5CC[C@]43C)[C@@H]12 [Compound 2, Betulinic acid, reference compound]
[1]; Homo sapiens, HepG2, 72 h
  IC50: 36.4 ± 1.5 µM
Jurkat (human leukemia); Homo sapiens, Jurkat
  IC50: 26.9 ± 2.2 µM
[2]; Homo sapiens, HeLa
  IC50: 26 ± 2.1 µM
[4]; Homo sapiens, Chang liver
  IC50: 92.3 ± 4.1 µM
HepG2 cells
  Phase of cell cycle (% of cells) G0/G1: 59.7 ± 2.0 % of cells
  Phase of cell cycle (% of cells) G2/M: 14.3 ± 0.9 % of cells
  Phase of cell cycle (% of cells) S: 25.9 ± 1.3 % of cells
HeLa cells
  Phase of cell cycle (% of cells) G0/G1: 66.8 ± 1.2 % of cells
  Phase of cell cycle (% of cells) G2/M: 11.7 ± 1.1 % of cells
  Phase of cell cycle (% of cells) S: 21.4 ± 0.9 % of cells
Jurkat cells
  Phase of cell cycle (% of cells) G0/G1: 56.8 ± 5.0 % of cells
  Phase of cell cycle (% of cells) G2/M: 24.1 ± 4.7 % of cells
  Phase of cell cycle (% of cells) S: 18.9 ± 1.2 % of cells

## C=C(C)[C@@H]1CC[C@]2(COC(=O)n3ccnc3)CC[C@]3(C)[C@H](CC[C@@H]4[C@@]5(C)CC[C@H](O)C(C)(C)[C@@H]5CC[C@]43C)[C@@H]12 [Compound 14, 3β-hydroxy-lup-20(29)-en-28-yl-1H-imidazole-1-carboxylate]
[1]; 72 h
  IC50: 4.2 ± 0.3 µM
Jurkat (human leukemia)
  IC50: 16.3 ± 1.2 µM
[2]
  IC50: 7.6 ± 0.6 µM
[4]
  IC50: 79.7 ± 6.4 µM
[5]
  IC50: 10.3 ± 1.6 µM
[6]
  IC50: 13 ± 1.5 µM
[7]
  IC50: 21 ± 2 µM

## C=C(C)[C@@H]1CC[C@]2(COC(=O)n3ccnc3C)CC[C@]3(C)[C@H](CC[C@@H]4[C@@]5(C)CC[C@H](O)C(C)(C)[C@@H]5CC[C@]43C)[C@@H]12 [Compound 15, 3β-hydroxy-lup-20(29)-en-28-yl-2′-methyl-1H-imidazole-1-carboxylate]
[1]; 72 h
  IC50: 8.1 ± 0.4 µM
Jurkat (human leukemia)
  IC50: 15.8 ± 2.4 µM
[2]
  IC50: 11 ± 1.7 µM
[3]
  IC50: 16.2 ± 2.1 µM

## C=C(C)[C@@H]1CC[C@]2(COC(=O)n3ccnc3)CC[C@]3(C)[C@H](CC[C@@H]4[C@@]5(C)CC[C@H](OC(=O)n6ccnc6)C(C)(C)[C@@H]5CC[C@]43C)[C@@H]12 [Compound 17, Lup-20(29)-en-3β,28-di-yl-(1H-imidazole-1-carboxylate)]
[1]; 72 h
  IC50: > 30 µM
Jurkat (human leukemia)
  IC50: > 30 µM
[2]
  IC50: > 30 µM
[5]
  IC50: 12.9 ± 1.1 µM
[6]
  IC50: 14.4 ± 1.3 µM
[7]
  IC50: > 30 µM

## C=C(C)[C@@H]1CC[C@]2(C(=O)O)CC[C@]3(C)[C@H](CC[C@@H]4[C@@]5(C)CC[C@H](OC(=O)n6ccnc6)C(C)(C)[C@@H]5CC[C@]43C)[C@@H]12 [Compound 28, 3β-(1H-imidazole-1-carbonyloxy)-lup-20(29)-en-28-oic acid]
[1]; 72 h
  IC50: 6.2 ± 0.2 µM
Jurkat (human leukemia)
  IC50: 5.2 ± 0.7 µM
[2]
  IC50: 5.1 ± 0.3 µM
[4]
  IC50: 56.8 ± 2.2 µM
[5]
  IC50: 11.8 ± 0.9 µM
[6]
  IC50: 15.6 ± 0.8 µM
[7]
  IC50: 5.6 ± 0.4 µM
